{"source": "ChEMBL document CHEMBL1201862", "about": "“PubChem BioAssay data set” (2004)", "key": {"[1]": {"biological_target": "Disintegrin and metalloproteinase domain-containing protein 17 (Homo sapiens, UniProt P78536)", "test": "ADAM17 protease inhibitors, dose response, counter-screen for ADAM10 exosite inhibitor project, biochemical, quenched FRET substrate (AID 743253)"}, "[2]": {"test": "ADAM10 inhibitors, peptide cleavage, dose response, biochemical, QFRET (AID 743254);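 further: ADAM10 enzyme with the DM2 quenched FRET peptide as substrate; EDANS fluorescence gain as the protease cuts the substrate; inhibitor potency against ADAM10 proteolytic activity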"}, "[3]": {"test": "ZM109 Env clade C HIV-1 fusion inhibitors, dose response, HeLa effector, CEM target cells, luciferase, cherry-pick (AID 652058)", "format": "functional, cell-based"}, "[4]": {"test": "inhibitors of clade B AD8 Env fusion, dose response, cell-based, cherry-pick (AID 652062);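 further: potency is for inhibitors of fusion seen as a drop in luminescence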", "format": "functional"}, "[5]": {"test": "off-target signal loss in HeLa-CEM21 co-culture – HeLa F-luc CTL cells, cherry-picked, counter-screen for HIV-1 Env fusion inhibitor project, dose response (AID 652040);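 further: potency for signal decrease marking cytotoxic or nonspecific inhibition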", "format": "functional, cell-based"}, "[6]": {"test": "inhibitors of HIV Env-driven cell fusion, dose response, cherry-pick (AID 652057)", "format": "functional, cell-based"}, "Major prion protein": {"biological_target": "Major prion protein (Homo sapiens, UniProt P04156)", "format": "functional, cell-based"}, "[7]": {"biological_target": "NAD-dependent protein deacylase sirtuin-5, mitochondrial (Homo sapiens, UniProt Q9NXA8)", "test": "SIRT5 desuccinylase inhibitors, dose response, biochemical, fluorescence imaging, cherry-pick, set 5 (AID 720591);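 further: desuccinylation of succinyl peptide AMC substrate read as fluorescence after trypsin release; potency of inhibitors that lower fluorescence and may act on trypsin instead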"}, "[8]": {"biological_target": "T1, Long-chain-fatty-acid--AMP ligase FadD28 (Mycobacterium tuberculosis, UniProt P9WQ59)", "T1 sequence (P9WQ59 whole entry)": "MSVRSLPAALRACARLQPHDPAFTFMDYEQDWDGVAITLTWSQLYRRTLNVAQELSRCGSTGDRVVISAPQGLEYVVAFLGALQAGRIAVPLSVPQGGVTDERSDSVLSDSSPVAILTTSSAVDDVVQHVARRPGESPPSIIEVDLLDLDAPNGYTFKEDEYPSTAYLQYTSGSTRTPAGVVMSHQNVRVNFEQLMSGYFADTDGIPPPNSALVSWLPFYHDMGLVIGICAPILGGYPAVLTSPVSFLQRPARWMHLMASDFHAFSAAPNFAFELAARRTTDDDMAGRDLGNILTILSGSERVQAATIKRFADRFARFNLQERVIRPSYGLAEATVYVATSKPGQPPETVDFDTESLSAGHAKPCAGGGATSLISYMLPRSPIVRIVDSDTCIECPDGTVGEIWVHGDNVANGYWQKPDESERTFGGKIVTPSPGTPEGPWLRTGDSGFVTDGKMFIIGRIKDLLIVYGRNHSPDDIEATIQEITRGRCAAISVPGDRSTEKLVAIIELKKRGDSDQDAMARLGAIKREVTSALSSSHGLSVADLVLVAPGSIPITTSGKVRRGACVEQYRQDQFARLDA", "test": "Fluorescence polarization aasay to screen for inhibitors that compete for the binding of FadD28 to a bisubstrate Measured in Biochemical System Using Plate Reader - 2147-01_Inhibitor_Dose_CherryPick_Activity.", "format": "functional, Mycobacterium tuberculosis H37Rv"}, "[9]": {"biological_target": "T2, Neuropeptide Y receptor type 2 (Homo sapiens, UniProt P49146)", "T2 sequence (P49146 whole entry)": "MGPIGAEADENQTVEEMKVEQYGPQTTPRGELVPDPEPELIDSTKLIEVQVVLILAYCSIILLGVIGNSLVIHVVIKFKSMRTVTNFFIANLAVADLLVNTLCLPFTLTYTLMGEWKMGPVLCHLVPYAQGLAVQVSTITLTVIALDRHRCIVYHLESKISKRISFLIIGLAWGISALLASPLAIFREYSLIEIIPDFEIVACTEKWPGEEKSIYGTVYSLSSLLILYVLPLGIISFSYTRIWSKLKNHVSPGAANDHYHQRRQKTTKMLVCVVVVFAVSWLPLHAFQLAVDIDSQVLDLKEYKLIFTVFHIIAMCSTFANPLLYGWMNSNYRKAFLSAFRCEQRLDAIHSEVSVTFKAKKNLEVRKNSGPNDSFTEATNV", "test": "Fluorescence-based cell-based high-throughput dose response assay for agonists of NPY-Y2. [Related pubchem assays: 1703 (Screening assay (CNGC inhibitors).), 1359 (Screening assay (NPY-Y2 potentiators or agonists).), 1304 (Screening assay (NPY-Y1 potentiators or agonists).), 1710 (Screening assay (NPY-Y2 agonists).), 1791 (Summary AID.)]", "format": "functional"}, "[10]": {"biological_target": "T3, Neuropeptide Y receptor type 1 (Homo sapiens, UniProt P25929)", "T3 sequence (P25929 whole entry)": "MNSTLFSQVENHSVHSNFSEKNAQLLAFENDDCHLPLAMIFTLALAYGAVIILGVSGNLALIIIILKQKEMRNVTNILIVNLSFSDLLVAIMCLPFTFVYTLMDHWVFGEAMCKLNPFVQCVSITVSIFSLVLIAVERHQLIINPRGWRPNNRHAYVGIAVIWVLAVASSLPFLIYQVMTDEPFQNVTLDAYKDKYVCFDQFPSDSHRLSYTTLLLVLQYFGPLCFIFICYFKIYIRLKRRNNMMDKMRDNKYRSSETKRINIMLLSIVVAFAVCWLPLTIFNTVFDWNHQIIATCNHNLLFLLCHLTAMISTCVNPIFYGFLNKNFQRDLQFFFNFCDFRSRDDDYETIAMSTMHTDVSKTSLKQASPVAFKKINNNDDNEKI", "test": "Fluorescence-based counterscreen for agonists of NPY-Y2: cell-based high-throughput dose response assay for agonists of NPY-Y1.", "format": "functional"}, "HEK293": {"test_system": "HEK293", "test": "Fluorescence-based counterscreen for potentiators or agonists of NPY-Y2: cell-based high-throughput dose response assay to identify inhibitors of cyclic nucleotide gated ion channel (CNGC) activity. In this assay, the parental HEK293 cell line transfected with a cyclic-nucleotide gated ion channel (CNGC)-based cAMP sensor is used to measure inhibition of isoproterenol-induced CNGC activity by test compound.", "format": "functional", "settings": "Homo sapiens"}, "[11]": {"test": "LGR2 antagonists, dose response, cell-based, HEK293, CRE-luciferase reporter, cherry pick, set 2 (AID 743343);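 further: transfected cells were stimulated with diluted bursicon conditioned medium after compound addition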", "format": "functional"}, "Vero": {"test_system": "Vero", "test": "cells", "format": "functional", "settings": "Chlorocebus sabaeus"}, "[12]": {"test": "HEK293 cell cytotoxicity, dose response, cytotoxicity control, plate reader, cherry-picked samples (AID 743446)", "format": "functional, cell-based"}, "[13]": {"test": "MC4R antagonists, dose response, counter-screen for LGR2 antagonist project, cell-based, plate reader, cherry pick (AID 743444);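 further: transfected HEK 293 cells stimulated with alpha-MSH peptide; potency of inhibitors of the alpha-MSH evoked signal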", "format": "functional"}, "[14]": {"test": "CEM21 lymphoblast cell cytotoxicity, dose response, cytotoxicity control for viral fusion inhibitor project, CellTiter-Glo luminescence, cherry-picked (AID 652042);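 further: potency for signal decrease meaning cytotoxicity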", "format": "functional, cell-based"}}, "note": "Calls of active or inactive are those of the source.", "data": [{"smiles": "COc1ccc(OC(F)(F)F)cc1CC1(C)C(=O)Nc2ccc(-c3ccsc3)cc21", "note": "(stereo unspecified)", "values": [{"measurement": "IC50", "setting": "[1]", "value": "> 69.5 µM (inactive)"}, {"measurement": "IC50", "setting": "[2]", "value": "8.48 µM (active)"}]}, {"smiles": "COc1cc2oc(=O)cc(-c3ccc(-c4ccc(CO)cc4)cc3)c2c(OC)c1OC", "values": [{"measurement": "AC50", "setting": "[3]", "value": "5.08 µM (active)"}, {"measurement": "AC50", "setting": "[4]", "value": "13.2 µM (active)"}, {"measurement": "AC50", "setting": "[5]", "value": "8.61 µM (active)"}, {"measurement": "AC50", "setting": "[6]", "value": "12.1 µM (active)"}]}, {"smiles": "Cc1nc(SCCC(=O)O)c2ccccc2n1", "values": [{"measurement": "IC50", "setting": "cells", "value": "> 138 µM (inactive)"}, {"measurement": "IC50", "setting": "Major prion protein", "value": "0.915 µM (active)"}]}, {"smiles": "CCCCCCCCN1C(=O)[C@H](CC(=O)NCC2CCCCC2)C[C@@]2(C(=O)OCC)CCC=C12", "values": [{"measurement": "AC50", "setting": "[7]", "value": "27.7 µM (active)"}]}, {"smiles": "Cc1ccc(C(=O)OCC(=O)Nc2ccc3c(c2)OCO3)cc1S(=O)(=O)N1CCOCC1", "values": [{"measurement": "AC50", "setting": "[8]", "value": "> 100 µM (inactive)"}]}, {"smiles": "CCOC(=O)c1ccc(-n2c(=S)sc3c(O)nc(C)nc32)cc1", "values": [{"measurement": "EC50", "setting": "[9]", "value": "> 35.4 µM (not active)"}, {"measurement": "EC50", "setting": "[10]", "value": "> 35.4 µM (not active)"}, {"measurement": "EC50", "setting": "HEK293", "value": "> 35.4 µM (not active)"}]}, {"smiles": "CCCCN(CCCNC(=O)c1ccc2c(c1)NC(=O)CN2C)c1ccccc1", "values": [{"measurement": "AC50", "setting": "[11]", "value": "21.6 µM (active)"}, {"measurement": "CC50", "setting": "Vero", "value": "> 25 µM (active)"}, {"measurement": "AC50", "setting": "[12]", "value": "16.7 µM (active)"}, {"measurement": "AC50", "setting": "[13]", "value": "23.9 µM (active)"}]}, {"smiles": "Cc1c(C(=O)c2ccccc2C(=O)O)sc2ccccc12", "values": [{"measurement": "IC50", "setting": "cells", "value": "> 138 µM (inactive)"}, {"measurement": "IC50", "setting": "Major prion protein", "value": "8.21 µM (active)"}]}, {"smiles": "C[C@H]1CN([C@@H](C)CO)S(=O)(=O)c2ccc(-c3ccc(F)cc3)cc2O[C@H]1CN(C)Cc1cccc(F)c1", "values": [{"measurement": "AC50", "setting": "[14]", "value": "19.9 µM (active)"}, {"measurement": "AC50", "setting": "[6]", "value": "12.4 µM (active)"}]}]}
